{"source": "paper PMC3605789", "about": "(Nature communications, 2013)", "target": "T1, inositol monophosphatase (IMPase) (Homo sapiens, UniProt P29218)", "T1 sequence (P29218 1-277)": "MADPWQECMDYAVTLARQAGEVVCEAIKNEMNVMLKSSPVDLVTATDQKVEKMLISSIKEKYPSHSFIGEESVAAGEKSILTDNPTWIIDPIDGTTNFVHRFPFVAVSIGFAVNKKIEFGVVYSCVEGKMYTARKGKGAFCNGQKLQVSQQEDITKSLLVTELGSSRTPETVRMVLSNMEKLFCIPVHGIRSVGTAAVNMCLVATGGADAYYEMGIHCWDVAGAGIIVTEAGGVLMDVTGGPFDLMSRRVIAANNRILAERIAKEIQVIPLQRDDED", "assay": "electrospray mass spectrometry of the covalent complex", "assay_type": "biochemical", "data": [{"smiles": "O=c1c2ccccc2[se]n1-c1ccccc1", "note": "[ebselen]", "values": [{"measurement": "IC50", "result": 1.5, "unit": "µM"}]}]}
